Results taken from PubChem BioAssay (NCI).
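Grown in 96-well plates, cells were treated for 48 hours with each compound at five concentrations. Insufficient inhibition: endpoint recorded as highest concentration tested. At the TGI there is no net growth.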

Columns and labels:
Assay in all cases: NCI anticancer screen, dose series, 48 h
NCI-H23 lung = system: NCI-H23 lung
OVCAR-3 ovarian = system: OVCAR-3 ovarian
HOP-62 NSCLC = system: HOP-62 NSCLC
MDA-MB-435 = system: MDA-MB-435
PC-3 prostate = system: PC-3 prostate
HCC-2998 colon = system: HCC-2998 colon
CCRF-CEM leukemia = system: CCRF-CEM leukemia
COLO 205 colon = system: COLO 205 colon
NCI/ADR-RES ovarian = system: NCI/ADR-RES ovarian
SN12C renal = system: SN12C renal
SK-OV-3 ovarian = system: SK-OV-3 ovarian
SW-620 colon = system: SW-620 colon
SK-MEL-2 melanoma = system: SK-MEL-2 melanoma
UO-31 renal = system: UO-31 renal
A498 renal = system: A498 renal
MCF7 breast = system: MCF7 breast
TK-10 renal = system: TK-10 renal
NCI-H226 lung = system: NCI-H226 lung
HOP-92 NSCLC = system: HOP-92 NSCLC
RXF 393 renal = system: RXF 393 renal
HCT-116 colon = system: HCT-116 colon
IGROV1 ovarian = system: IGROV1 ovarian
786-0 renal = system: 786-0 renal
UACC-257 melanoma = system: UACC-257 melanoma
SF-268 CNS = system: SF-268 CNS
ACHN renal = system: ACHN renal
A549 NSCLC = system: A549 NSCLC
SNB-19 CNS = system: SNB-19 CNS
SK-MEL-28 melanoma = system: SK-MEL-28 melanoma
M14 melanoma = system: M14 melanoma
SK-MEL-5 melanoma = system: SK-MEL-5 melanoma
EKVX NSCLC = system: EKVX NSCLC
DU-145 prostate = system: DU-145 prostate
UACC-62 melanoma = system: UACC-62 melanoma
CAKI-1 renal = system: CAKI-1 renal
HT29 colon = system: HT29 colon
HS 578T breast = system: HS 578T breast
KM12 colon = system: KM12 colon
NCI-H460 lung = system: NCI-H460 lung
SNB-75 CNS = system: SNB-75 CNS
U251 CNS = system: U251 CNS
T-47D breast = system: T-47D breast
MDA-MB-231 breast = system: MDA-MB-231 breast
MDA-N = system: MDA-N
OVCAR-4 ovarian = system: OVCAR-4 ovarian
NCI-H522 lung = system: NCI-H522 lung
HCT-15 colon = system: HCT-15 colon
BT-549 breast = system: BT-549 breast
OVCAR-5 ovarian = system: OVCAR-5 ovarian
SF-295 CNS = system: SF-295 CNS
SF-539 CNS = system: SF-539 CNS

## O=C(O)c1cc(NCc2cc(O)ccc2O)ccc1O
NCI-H23 lung
  TGI: > 100 µM
OVCAR-3 ovarian
  TGI: > 100 µM
HOP-62 NSCLC
  TGI: > 100 µM
MDA-MB-435
  TGI: > 100 µM
PC-3 prostate
  TGI: > 100 µM
HCC-2998 colon
  TGI: > 100 µM
CCRF-CEM leukemia
  TGI: > 100 µM
COLO 205 colon
  TGI: > 100 µM
NCI/ADR-RES ovarian
  TGI: > 100 µM
SN12C renal
  TGI: > 100 µM
SK-OV-3 ovarian
  TGI: > 100 µM
SW-620 colon
  TGI: 50.6 µM
SK-MEL-2 melanoma
  TGI: > 100 µM
UO-31 renal
  TGI: > 100 µM
A498 renal
  TGI: > 100 µM
MCF7 breast
  TGI: > 100 µM
TK-10 renal
  TGI: > 100 µM
NCI-H226 lung
  TGI: > 100 µM
HOP-92 NSCLC
  TGI: > 100 µM
RXF 393 renal
  TGI: > 100 µM
HCT-116 colon
  TGI: > 100 µM
IGROV1 ovarian
  TGI: > 100 µM
786-0 renal
  TGI: > 100 µM
UACC-257 melanoma
  TGI: > 100 µM
SF-268 CNS
  TGI: > 100 µM
ACHN renal
  TGI: > 100 µM
A549 NSCLC
  TGI: > 100 µM
SNB-19 CNS
  TGI: > 100 µM
SK-MEL-28 melanoma
  TGI: > 100 µM
M14 melanoma
  TGI: > 100 µM
SK-MEL-5 melanoma
  TGI: > 100 µM
EKVX NSCLC
  TGI: > 100 µM
DU-145 prostate
  TGI: > 100 µM
UACC-62 melanoma
  TGI: > 100 µM
CAKI-1 renal
  TGI: > 100 µM
HT29 colon
  TGI: > 100 µM
HS 578T breast
  TGI: > 100 µM
KM12 colon
  TGI: > 100 µM
NCI-H460 lung
  TGI: > 100 µM
SNB-75 CNS
  TGI: > 100 µM
U251 CNS
  TGI: > 100 µM
T-47D breast
  TGI: > 100 µM
MDA-MB-231 breast
  TGI: > 100 µM
MDA-N
  TGI: 55.1 µM
OVCAR-4 ovarian
  TGI: > 100 µM
NCI-H522 lung
  TGI: 40.7 µM
HCT-15 colon
  TGI: > 100 µM
BT-549 breast
  TGI: > 100 µM
OVCAR-5 ovarian
  TGI: > 100 µM
SF-295 CNS
  TGI: > 100 µM
SF-539 CNS
  TGI: > 100 µM
